Read-outs that look alike come from different tables or passages of the source.
Key:
[1] = molecular target: T1, Gce (germ cell-expressed), Myc-tagged, in vitro translated (Drosophila melanogaster, UniProt Q9VXW7); test: competition against R,S-[3H]JH III, glass fiber filter; format: binding
T1 sequence (Q9VXW7 271-959): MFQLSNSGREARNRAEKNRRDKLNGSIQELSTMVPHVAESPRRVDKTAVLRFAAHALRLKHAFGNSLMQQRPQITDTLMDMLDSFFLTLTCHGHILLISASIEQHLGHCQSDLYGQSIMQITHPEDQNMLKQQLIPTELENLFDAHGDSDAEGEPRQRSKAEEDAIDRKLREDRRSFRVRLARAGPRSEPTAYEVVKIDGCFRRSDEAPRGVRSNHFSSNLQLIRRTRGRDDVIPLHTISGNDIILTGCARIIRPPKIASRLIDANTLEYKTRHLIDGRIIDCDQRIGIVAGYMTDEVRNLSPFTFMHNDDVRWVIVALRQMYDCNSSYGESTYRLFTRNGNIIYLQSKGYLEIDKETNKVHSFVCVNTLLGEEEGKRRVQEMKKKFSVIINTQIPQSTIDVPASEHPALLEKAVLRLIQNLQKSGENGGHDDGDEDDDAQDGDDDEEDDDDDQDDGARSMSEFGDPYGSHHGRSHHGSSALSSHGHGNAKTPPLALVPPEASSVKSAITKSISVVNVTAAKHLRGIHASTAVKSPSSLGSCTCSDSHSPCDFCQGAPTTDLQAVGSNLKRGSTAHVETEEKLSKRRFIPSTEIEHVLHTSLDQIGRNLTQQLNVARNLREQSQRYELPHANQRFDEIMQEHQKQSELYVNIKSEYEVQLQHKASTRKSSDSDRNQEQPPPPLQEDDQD

[2] = molecular target: T2, endogenous Gce in Drosophila S2 cells (JHRE-luc) (Drosophila melanogaster, UniProt Q9VXW7); test: JHRE-luc reporter activation in S2 cells; format: cell-based; conditions: 8 h, transfected Tai, agonist
T2 construct: endogenous Gce of S2 cells, transfected D. melanogaster Tai and JHRE-luc reporter

[3] = read-out: Affinity of ligand binding to Gce (Ki)^a

T2 sequence (Q9VLD9 1-2026 partner, one chain of several): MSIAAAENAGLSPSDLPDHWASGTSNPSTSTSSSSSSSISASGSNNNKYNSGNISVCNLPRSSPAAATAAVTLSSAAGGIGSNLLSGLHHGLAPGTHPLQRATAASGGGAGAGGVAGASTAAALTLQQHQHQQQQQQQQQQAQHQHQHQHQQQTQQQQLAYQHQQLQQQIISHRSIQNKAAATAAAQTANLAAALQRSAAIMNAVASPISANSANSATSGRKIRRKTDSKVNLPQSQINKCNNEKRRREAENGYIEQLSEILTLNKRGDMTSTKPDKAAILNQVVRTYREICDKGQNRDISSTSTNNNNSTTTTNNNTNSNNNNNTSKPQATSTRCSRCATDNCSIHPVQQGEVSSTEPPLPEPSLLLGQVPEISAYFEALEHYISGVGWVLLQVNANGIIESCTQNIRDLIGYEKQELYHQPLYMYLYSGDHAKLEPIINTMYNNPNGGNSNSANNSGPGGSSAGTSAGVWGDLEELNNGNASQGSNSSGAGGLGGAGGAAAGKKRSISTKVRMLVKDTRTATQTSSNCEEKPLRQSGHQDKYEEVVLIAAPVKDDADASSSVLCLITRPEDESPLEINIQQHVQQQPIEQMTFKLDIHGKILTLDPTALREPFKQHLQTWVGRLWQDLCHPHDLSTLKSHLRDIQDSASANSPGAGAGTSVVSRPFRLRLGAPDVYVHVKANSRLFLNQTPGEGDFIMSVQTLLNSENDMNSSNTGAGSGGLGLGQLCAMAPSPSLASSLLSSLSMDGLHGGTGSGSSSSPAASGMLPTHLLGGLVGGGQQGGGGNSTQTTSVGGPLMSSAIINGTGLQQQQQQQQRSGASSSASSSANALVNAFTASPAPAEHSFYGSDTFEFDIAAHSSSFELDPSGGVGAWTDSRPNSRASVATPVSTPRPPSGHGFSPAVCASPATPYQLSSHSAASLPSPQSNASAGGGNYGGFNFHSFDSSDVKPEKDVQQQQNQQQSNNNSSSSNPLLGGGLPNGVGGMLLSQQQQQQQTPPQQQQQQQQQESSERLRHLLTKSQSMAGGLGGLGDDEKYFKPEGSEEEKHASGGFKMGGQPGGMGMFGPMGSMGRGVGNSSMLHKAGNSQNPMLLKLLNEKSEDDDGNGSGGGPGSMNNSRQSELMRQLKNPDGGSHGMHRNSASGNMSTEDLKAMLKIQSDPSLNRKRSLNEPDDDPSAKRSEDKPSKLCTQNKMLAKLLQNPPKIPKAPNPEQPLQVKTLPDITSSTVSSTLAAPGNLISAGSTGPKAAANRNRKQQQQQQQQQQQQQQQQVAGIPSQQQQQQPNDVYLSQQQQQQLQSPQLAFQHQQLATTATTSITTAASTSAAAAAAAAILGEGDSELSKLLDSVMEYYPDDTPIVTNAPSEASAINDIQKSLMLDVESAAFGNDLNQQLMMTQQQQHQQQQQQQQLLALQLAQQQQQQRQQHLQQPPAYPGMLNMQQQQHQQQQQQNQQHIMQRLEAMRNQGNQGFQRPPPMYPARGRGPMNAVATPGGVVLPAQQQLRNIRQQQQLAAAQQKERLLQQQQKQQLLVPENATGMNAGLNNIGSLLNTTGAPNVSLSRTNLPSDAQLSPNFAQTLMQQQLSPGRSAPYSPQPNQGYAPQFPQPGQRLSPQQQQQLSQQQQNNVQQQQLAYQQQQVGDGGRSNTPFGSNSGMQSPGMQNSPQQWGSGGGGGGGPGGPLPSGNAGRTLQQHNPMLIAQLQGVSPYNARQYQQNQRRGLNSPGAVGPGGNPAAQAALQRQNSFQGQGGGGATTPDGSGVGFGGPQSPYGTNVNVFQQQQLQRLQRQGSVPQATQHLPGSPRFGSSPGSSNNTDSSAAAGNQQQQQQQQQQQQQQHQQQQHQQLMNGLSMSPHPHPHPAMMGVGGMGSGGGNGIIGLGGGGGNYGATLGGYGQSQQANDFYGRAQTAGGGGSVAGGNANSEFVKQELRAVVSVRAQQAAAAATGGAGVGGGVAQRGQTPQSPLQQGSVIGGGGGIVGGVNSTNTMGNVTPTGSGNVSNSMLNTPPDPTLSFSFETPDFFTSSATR

| Compound | Ki ([1]; read-out: Ki) [nM] | EC50 ([2]; read-out: EC50) [nM] | Ki [1, 3] [nM] | also measured |
| --- | --- | --- | --- | --- |
| COC(=O)/C=C(\C)CCC1OC1(C)CCC1OC1(C)C (centres unmarked) [JHB3] | 83.3 ± 40.8 | 110 ± 10 | – | – |
| COC(=O)/C=C(\C)CC/C=C(\C)CCC1OC1(C)C (centres unmarked) [R,S-JH III] | 11 ± 2.2 | – | – | EC50 ([2]; racemic compound, read-out: EC50): 210 ± 140 nM |
| CC/C(=C/CC/C(C)=C/C(=O)OC)CC[C@H]1O[C@]1(C)CC [R-(E,Z)-JH I] | – | – | 479 | – |
| CC/C(=C\CC/C(C)=C\C(=O)OC)CC[C@H]1O[C@]1(C)CC [R-(Z,E)-JH I] | – | – | 2400 | – |
| CC/C(=C/CC/C(C)=C\C(=O)OC)CC[C@H]1O[C@]1(C)CC [R-(Z,Z)-JH I] | – | – | 28900 | – |
| COC(=O)/C=C(\C)CC/C=C(\C)CC[C@H]1OC1(C)C [R-JH III] | 4.8 ± 1.3 | 930 ± 380 | – | – |
| COC(=O)/C=C(\C)CC/C=C(\C)CC[C@@H]1OC1(C)C [S-JH III] | 38.3 ± 5.2 | – | – | EC50 ([2]; unreliable (no saturation reached)): 4460 ± 2950 nM |
| CCOC(=O)NCCOc1ccc(CC2CCCCC2O)cc1 (centres unmarked) [W330, Ethyl N-{2-{4-[(2-hydroxycyclohexyl)methyl]phenoxy}ethyl}carbamate] | 17.4 ± 5.7 | 5.42 ± 0.41 | – | – |
| CCOC(=O)NCCOc1ccc(Oc2ccccc2)cc1 [fenoxycarb, ethyl N-[2-(4-phenoxyphenoxy)ethyl]carbamate] | 2.8 ± 1.1 | 2.29 ± 0.65 | – | – |

More lines, main results first:

| Ki ([1]; read-out: Ki) [nM] | EC50 ([2]; read-out: EC50) [nM] | Ki [1, 3] [nM] | Compound | also measured |
| --- | --- | --- | --- | --- |
| 89.8 ± 26.7 | 4430 ± 950 | – | COC(=O)/C=C(\C)CC/C=C(\C)CCC=C(C)C [MF] | – |
| 13.8 ± 5.1 | 370 ± 220 | – | CC/C(=C\CC/C(C)=C/C(=O)OC)CC[C@H]1O[C@@]1(C)CC [S-(E,E)-JH I] | – |
| – | – | 447 | CC/C(=C/CC/C(C)=C/C(=O)OC)CC[C@H]1O[C@@]1(C)CC [S-(E,Z)-JH I] | – |
| – | – | 614 | CC/C(=C\CC/C(C)=C\C(=O)OC)CC[C@H]1O[C@@]1(C)CC [S-(Z,E)-JH I] | – |
| – | – | 22600 | CC/C(=C/CC/C(C)=C\C(=O)OC)CC[C@H]1O[C@@]1(C)CC [S-(Z,Z)-JH I] | – |
| 143 ± 45 | – | – | CC/C(C)=C/CC/C(=C/CC/C(C)=C/C(=O)OC)CC [deoxy-JH I, methyl (2E,6E,10E)-7-ethyl-3,11-dimethyltrideca-2,6,10-trienoate] | – |

Source: article PMC6333893, “Exquisite ligand stereoselectivity of a Drosophila juvenile hormone receptor contrasts with its broad agonist repertoire” (The Journal of Biological Chemistry, 2018)
